From PubChem BioAssay (NCI)
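The compound was tested at five concentrations on cells cultured in 96-well plates, with a 48-hour exposure period. TGI is the concentration that stops growth completely.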

Assays:
Assay in all cases: NCI anticancer screen, dose series, 48 h
OVCAR-8 ovarian = system: OVCAR-8 ovarian
NCI-H522 lung = system: NCI-H522 lung
LOX IMVI melanoma = system: LOX IMVI melanoma
OVCAR-4 ovarian = system: OVCAR-4 ovarian
KM12 colon = system: KM12 colon
UO-31 renal = system: UO-31 renal
786-0 renal = system: 786-0 renal
CAKI-1 renal = system: CAKI-1 renal
DMS 273 small cell lung = system: DMS 273 small cell lung
DMS 114 small cell lung = system: DMS 114 small cell lung
COLO 205 colon = system: COLO 205 colon
HOP-92 NSCLC = system: HOP-92 NSCLC
HCT-116 colon = system: HCT-116 colon
UACC-257 melanoma = system: UACC-257 melanoma
K-562 leukemia = system: K-562 leukemia
SF-295 CNS = system: SF-295 CNS
MOLT-4 leukemia = system: MOLT-4 leukemia
UACC-62 melanoma = system: UACC-62 melanoma
IGROV1 ovarian = system: IGROV1 ovarian
SNB-19 CNS = system: SNB-19 CNS
M19-MEL melanoma = system: M19-MEL melanoma
NCI-H226 lung = system: NCI-H226 lung
MALME-3M melanoma = system: MALME-3M melanoma
A498 renal = system: A498 renal
M14 melanoma = system: M14 melanoma
HL-60(TB) leukemia = system: HL-60(TB) leukemia
HT29 colon = system: HT29 colon
SR leukemia = system: SR leukemia
SK-MEL-28 melanoma = system: SK-MEL-28 melanoma
SK-MEL-2 melanoma = system: SK-MEL-2 melanoma
SNB-78 CNS = system: SNB-78 CNS
SN12C renal = system: SN12C renal
DLD-1 colon = system: DLD-1 colon
TK-10 renal = system: TK-10 renal
SK-OV-3 ovarian = system: SK-OV-3 ovarian
HCC-2998 colon = system: HCC-2998 colon
SF-539 CNS = system: SF-539 CNS
NCI-H23 lung = system: NCI-H23 lung
SNB-75 CNS = system: SNB-75 CNS
OVCAR-3 ovarian = system: OVCAR-3 ovarian
RXF-631 renal = system: RXF-631 renal
CCRF-CEM leukemia = system: CCRF-CEM leukemia
LXFL 529 NSCLC = system: LXFL 529 NSCLC
SW-620 colon = system: SW-620 colon
XF 498 CNS = system: XF 498 CNS
RPMI-8226 leukemia = system: RPMI-8226 leukemia
A549 NSCLC = system: A549 NSCLC
EKVX NSCLC = system: EKVX NSCLC
HOP-62 NSCLC = system: HOP-62 NSCLC
SF-268 CNS = system: SF-268 CNS
ACHN renal = system: ACHN renal
HOP-18 NSCLC = system: HOP-18 NSCLC
RXF 393 renal = system: RXF 393 renal
HCT-15 colon = system: HCT-15 colon
SK-MEL-5 melanoma = system: SK-MEL-5 melanoma
U251 CNS = system: U251 CNS
NCI-H460 lung = system: NCI-H460 lung
OVCAR-5 ovarian = system: OVCAR-5 ovarian
KM20L2 colon = system: KM20L2 colon

Measured: TGI

CC1(CO)C(=O)OC12CCCCC2 (configuration not stated)
not listed: ACHN renal | HOP-18 NSCLC | RXF 393 renal | HCT-15 colon | SK-MEL-5 melanoma | U251 CNS | NCI-H460 lung | OVCAR-5 ovarian | KM20L2 colon
> 100 µM: all other assays above

COC(=O)c1ccccc1N=Cc1ccc(N(CCC#N)S(=O)(=O)c2ccccc2)cc1
not listed: DMS 114 small cell lung | HCC-2998 colon
> 100 µM: all other assays above
